# From article PMC8426238, “Synthesis and preclinical evaluation of [^11C]MTP38 as a novel PET ligand for phosphodiesterase 7 in the brain” (European Journal of Nuclear Medicine and Molecular Imaging, 2021)
# Columns and labels:
# Bradykinin B2 = molecular target: T1, Bradykinin B2 (Homo sapiens, UniProt P30411); assay: off-target screen panel; format: binding; conditions: Human recombinant, [^3H]Bradykinin
# T1 construct: purchased Eurofins Panlabs Discovery Services (Taiwan)
# Opiate μ (OP3, MOP) = molecular target: T2, Opiate μ (OP3, MOP) (Homo sapiens, UniProt P35372); assay: off-target screen panel; format: binding; conditions: Human recombinant, [^3H]Diprenorphine
# T2 construct: purchased Eurofins Panlabs Discovery Services (Taiwan)
# T2 sequence (P35372 whole entry): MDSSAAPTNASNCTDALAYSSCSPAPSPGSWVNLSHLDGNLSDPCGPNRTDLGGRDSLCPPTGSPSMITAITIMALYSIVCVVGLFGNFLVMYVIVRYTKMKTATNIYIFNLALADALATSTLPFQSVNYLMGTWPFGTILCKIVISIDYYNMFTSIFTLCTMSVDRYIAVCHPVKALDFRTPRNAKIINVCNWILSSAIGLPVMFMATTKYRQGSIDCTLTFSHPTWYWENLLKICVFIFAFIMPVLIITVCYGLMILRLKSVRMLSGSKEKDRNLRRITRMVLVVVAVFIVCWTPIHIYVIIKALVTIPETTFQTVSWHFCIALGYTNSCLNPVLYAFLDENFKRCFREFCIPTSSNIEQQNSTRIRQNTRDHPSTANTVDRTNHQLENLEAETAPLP
# Sigma σ1 = molecular target: T3, Sigma σ1 (Homo sapiens, UniProt Q99720); assay: off-target screen panel; format: binding; conditions: Human Jurkat cells, [^3H]Haloperidol
# T3 construct: purchased Eurofins Panlabs Discovery Services (Taiwan)
# T3 sequence (Q99720 whole entry): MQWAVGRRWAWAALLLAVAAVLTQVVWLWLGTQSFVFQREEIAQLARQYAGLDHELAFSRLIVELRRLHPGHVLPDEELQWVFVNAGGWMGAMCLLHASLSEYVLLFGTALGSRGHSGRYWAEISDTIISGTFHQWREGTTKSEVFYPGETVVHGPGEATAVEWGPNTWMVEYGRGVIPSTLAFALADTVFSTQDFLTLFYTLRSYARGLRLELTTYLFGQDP
# Tachykinin NK1 = molecular target: T4, Tachykinin NK1 (Homo sapiens, UniProt P25103); assay: off-target screen panel; format: binding; conditions: Human recombinant, [^3H]Substance P
# T4 construct: purchased Eurofins Panlabs Discovery Services (Taiwan)
# T4 sequence (P25103 whole entry): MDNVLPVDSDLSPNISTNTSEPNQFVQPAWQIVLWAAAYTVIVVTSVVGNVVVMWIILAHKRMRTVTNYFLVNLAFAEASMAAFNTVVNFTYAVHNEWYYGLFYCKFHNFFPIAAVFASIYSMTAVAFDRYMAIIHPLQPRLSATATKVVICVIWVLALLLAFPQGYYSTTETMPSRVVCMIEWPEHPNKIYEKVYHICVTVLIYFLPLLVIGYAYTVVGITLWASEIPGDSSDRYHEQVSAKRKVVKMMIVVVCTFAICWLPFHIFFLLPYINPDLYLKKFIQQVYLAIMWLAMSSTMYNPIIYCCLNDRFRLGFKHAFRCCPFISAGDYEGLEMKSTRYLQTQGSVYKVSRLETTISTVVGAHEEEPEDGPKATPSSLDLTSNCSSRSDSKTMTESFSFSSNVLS
# PDE7 = assay: PET imaging in monkeys with [^11C]MTP38; format: in vivo, rhesus monkeys; conditions: after unlabeled MTP38 iv bolus 0.075 mg/kg + infusion 0.3 mg/kg/h
# Procedure: Each monkey underwent multiple PET scans with intervals longer than 2 weeks. The monkeys were given an intramuscular injection of 0.04 mg/kg of atropine sulfate at 1.5 h before radioligand injection. They were subsequently anesthetized with an intramuscular injection of ketamine (5 mg/kg) and xylazine (0.5 mg/kg), intubated, and kept anesthetized with 1–2% isoflurane. Heart rate, electrocardiogram, body temperature, blood oxygen saturation level, and end-tidal CO2 were monitored during the PET scan. The monkeys were placed on a bed in a supine position, and the head was fixed at the center of the field of view of a microPET scanner Focus220. A transmission scan was performed for about 20 min using a ^68Ge-^68Ga point source. A 90-min list-mode data acquisition was started simultaneously with intravenous administration of [^11C]MTP38 via a saphenous vein cannula. All list-mode data were sorted into 3D sinograms, which were then Fourier-rebinned into 2D sinograms (frames: 10 s × 6, 30 s × 8, 1 min × 5, 2 min × 10, and 5 min × 12). The images were corrected for attenuation and reconstructed with a filtered back-projection algorithm using a Hanning filter with a cut-off at the Nyquist frequency (0.5 mm^−1).
# Along with baseline scans, we carried out blocking PET experiments according to the following pretreatment protocols: (1) unlabeled MTP38 was administered as an intravenous bolus (0.075 mg/kg) at 1 h before radioligand injection followed by continuous infusion at a rate of 0.3 mg/kg/h until the end of the PET scan, and (2) MTP-X (0.3–30 mg/kg) was administered orally at 2 or 6 h before radioligand injection.
# PET scans for monkeys at baseline and following pretreatment with unlabeled MTP38, and 3, 10, 30 mg/kg of MTP-X were performed along with arterial blood sampling to obtain a metabolite-corrected input function. In total, 22 arterial blood samples were collected manually with heparinized syringes via a saphenous artery contralateral to the radioligand injection. Sampling was performed at 10, 20, 30, 40, 50, 60, 75, 90, 105, 120, 150, 180, and 210 s and at 4, 5, 10, 20, 30, 45, 60, 75, and 90 min after radioligand injection. Blood samples were then placed on ice and divided into two aliquots, one of which was centrifuged with a refrigerated centrifuge (15,000×g, 3 min, 4 °C) to obtain plasma.
# PET images were co-registered onto the individual MR images. ROIs were placed on the prefrontal and medial frontal cortices, hippocampus, amygdala, striatum (caudate + putamen), nucleus accumbens, thalamus, cerebellum (gray matter), and brainstem. TACs in the baseline and blockade experiments were generated for each ROI.
# Regional TACs were examined by several analytical methods to calculate the regional total distribution volume (VT), which represents the sum of non-specific and specific radioligand binding. Compartment model (1- or 2-tissue) and Logan’s graphical analyses were employed for describing the radioligand kinetics in the brain. The fractional blood volume was fixed at 0.05. For compartment model analyses, an optimal model was chosen on the basis of Akaike’s information criterion (AIC) and model selection criterion (MSC). For graphical analyses, an equilibration time t* was determined so that by the maximum error from the regression within the linear segment was considered to be 10% for each TAC. Time stability of VT was investigated by truncating the data duration stepwise from 90 min to 30 min. The VT values with or without pretreatment with a blocker were then compared. We also validated the use of the cerebellum as a reference tissue by this comparison, in addition to the autoradiographic findings, in monkey brain slices. The non-displaceable binding potential (BPND) was calculated by the original multilinear reference tissue model (MRTMO). t* was determined in the same manner as Logan’s graphical analysis. […]
# [1] = molecular target: T5, Transporter, Serotonin (5-Hydroxytryptamine) (SERT) (Homo sapiens, UniProt P31645); assay: off-target screen panel; format: binding; conditions: Human recombinant, [^3H]Paroxetine
# T5 construct: purchased Eurofins Panlabs Discovery Services (Taiwan)
# T5 sequence (P31645 whole entry): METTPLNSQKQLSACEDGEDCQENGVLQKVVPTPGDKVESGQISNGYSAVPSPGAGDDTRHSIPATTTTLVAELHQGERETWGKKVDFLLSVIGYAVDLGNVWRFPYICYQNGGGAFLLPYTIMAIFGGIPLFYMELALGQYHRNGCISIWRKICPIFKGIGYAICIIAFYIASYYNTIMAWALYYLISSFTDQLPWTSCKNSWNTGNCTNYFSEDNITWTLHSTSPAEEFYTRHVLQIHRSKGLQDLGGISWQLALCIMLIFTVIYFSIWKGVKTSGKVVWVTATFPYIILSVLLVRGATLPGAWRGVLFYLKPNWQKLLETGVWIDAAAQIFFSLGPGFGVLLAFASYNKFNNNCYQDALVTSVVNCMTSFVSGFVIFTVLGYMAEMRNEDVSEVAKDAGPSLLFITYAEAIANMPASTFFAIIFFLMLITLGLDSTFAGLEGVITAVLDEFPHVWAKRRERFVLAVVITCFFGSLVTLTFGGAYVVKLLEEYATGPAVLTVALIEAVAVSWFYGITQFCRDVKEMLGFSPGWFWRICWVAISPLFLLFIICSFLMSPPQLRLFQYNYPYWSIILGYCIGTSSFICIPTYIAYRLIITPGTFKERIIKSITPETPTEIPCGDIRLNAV
# [2] = tested on: Calcium Channel L-Type, Dihydropyridine; assay: off-target screen panel; format: binding; conditions: Rat cerebral cortex, [^3H]Nitrendipine
# T1 sequence (P30411 whole entry): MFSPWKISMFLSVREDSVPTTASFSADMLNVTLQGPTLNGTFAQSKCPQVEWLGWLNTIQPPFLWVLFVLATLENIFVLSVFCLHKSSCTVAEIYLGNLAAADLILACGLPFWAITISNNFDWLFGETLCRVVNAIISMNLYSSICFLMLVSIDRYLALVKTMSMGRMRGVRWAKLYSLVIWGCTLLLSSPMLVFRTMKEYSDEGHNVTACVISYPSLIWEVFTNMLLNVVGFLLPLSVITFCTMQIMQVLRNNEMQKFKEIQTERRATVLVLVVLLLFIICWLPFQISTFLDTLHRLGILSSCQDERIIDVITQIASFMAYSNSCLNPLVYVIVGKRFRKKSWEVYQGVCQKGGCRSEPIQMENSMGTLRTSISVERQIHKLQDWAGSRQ
smiles,measurement,setting,value
"C[C@@H]1CC[C@H](C)N(c2nnc3c(N)ncc(C#N)n23)C1 (relative stereo) [MTP38, 8-amino-3-(2S*,5R*-dimethyl-1-piperidyl)-[1,2,4]triazolo[4,3-a]pyrazine-5-carbonitrile]",inhibition at 1 µM,Bradykinin B2,2%
same,inhibition at 1 µM,"Opiate μ (OP3, MOP)",4%
same,inhibition at 1 µM,Sigma σ1,6%
same,inhibition at 1 µM,Tachykinin NK1,9%
same,Striatal BPND of [^11C]MTP38,PDE7; monkey #1,0.157
same,Striatal BPND of [^11C]MTP38,PDE7; monkey #2,0.017
same,inhibition at 1 µM,[1],-14%
same,Inhibition (%) at 1 μM,[2],7%
